In patent publication US10857128B2, “Methods and compositions for treating inflammatory diseases” (Helmholtz Zentrum München Deutsches Forschungszentrum für …, priority 2017, dated 2020):
Where two headings read alike, the source gives them in different places.

Tests used:
[1] = tested on: costimulatory molecules of LPS-stimulated human dendritic cells; assay: Costimulatory molecules on LPS-stimulated human monocyte-derived dendritic cells (flow cytometry); assay type: cell-based; conditions: Dendritic cell, 24 h, LPS 0.1 μg/ml, D-amino acid 10 μM, mean ± SD of three experiments, relative to LPS-induced expression
Protocol: Generation of human monocyte-derived dendritic cells. Peripheral venous blood was obtained from healthy volunteers aged between 20 and 50 years after informed consent. Individuals with allergic disease, acute infection or taking any medication 20 days prior to blood sampling or any history of smoking (personal interview) were excluded prior to blood sampling. All experiments were conducted according to the principles expressed in the Declaration of Helsinki.
(§1) Peripheral blood mononuclear cells (PBMC) were isolated from heparinized whole blood by density gradient centrifugation (2000 rpm, 22° C., 20 min) (Biocoll, Biochrom AG, Berlin, Germany). […] Purity and viability of DCs was assessed by flow cytometry (FIG. 9A-C).
Costimulatory molecules on human DCs. The following primary monoclonal antibodies were used: CD83 fluorescein isothiocyanate (FITC); CD1a phycoerythrin (PE); CD86-FITC; CD80-PE; CD14 allophycocyanine (APC); CD40-APC; CD3-peridinin chlorophyll protein (PerCP); HLA-DR-PerCP; mouse immunoglobulins G1 (IgG1) mouse immunoglobulins G1 (IgG1) κ were used as isotype controls using the corresponding fluorochromes (all purchased from BD Biosciences, Heidelberg, Germany). To account for donor dependent variability of DC surface markers, all data were normalized to the expression induced by LPS which was set to 100% after subtraction of background values (FACS Canto, FACS DIVA software, Version 5.0.3, BD Biosciences, Heidelberg, Germany). Murine DC subsets and CD4^+ T cells. Single cell suspensions of splenocytes were obtained by filtering spleens through a 70 μm strainer. Samples were stained with CD3-PB (1:200, Biolegend, San Diego, USA), CD4-APC-H7 (BD, 1:400), CD11c-APC-Cy7 (1:100), Mhc-II-Percp-Cy5 (1:100), CD11b-FITC (1:100), CD80-AF647, CD40-APC (1:100). For intracellular cytokines, total spleen cells were stimulated with anti-CD3 (4 μg/mL, BD Bioscience, Heidelberg, Germany) and anti-CD28 (30 ng/mL, BD Bioscience, Heidelberg, Germany) for 16 h. 1×10^6 of total lung cells were stimulated for 16 h with MACSiBead particles coated with anti-CD3 and anti-CD28 using the T cell activation/expansion kit (Miltenyi Biotec, Bergisch Gladbach, Germany) in TexMACS medium (Miltenyi Biotec) according to the manufactures recommendations. Prior to staining, cells were treated with monensin (0.7 μL/mL, BD Golgi Stop, BD Bioscience, Heidelberg, Germany) for 6 h at 37° C. and intracellularly stained for II-4-PE (1:100, eBioscience, Vienna, Austria according to the manufacturer's protocols. Intracellular staining for Foxp3 was performed by using the Foxp3/Transcription Factor Staining buffer set (eBiosciences, Vienna, Austria) according to the manufacturer's recommendations.
Bioassays for screening for immune modulatory activity in probiotic supernatants. Two biological assays based on down-modulation of costimulatory molecules on human DCs, and of CCL17-secretion by a human Hodgkin lymphoma T cell line (KM-H2) were set up. Human immature DCs were matured with 0.1 μg/mL lipopolysaccharide (LPS) from E. coli (Sigma-Aldrich, St. Louis, USA) in the presence or absence of 200 μL bacteria free supernatants for 24 h followed by flow cytometric analysis of costimulatory molecules.

human LPS treated DCs = assay: Cytokine secretion of human DCs (multiplex assay); assay type: cell-based; conditions: for IFN-g / IL-5 / IL-10 / IL-12: 200 μl supernatant or amino acid 10 μM, 14 h
Protocol: as §1
[…] For probiotic supernatants, blank CDM1 was used as medium control. […] IL-5, IFN-gamma, IL-12, and IL-10, were quantified by a multiplex assay (Milliplex Human Cytokine Immunoassay, Millipore GMbH Schalbach, Germany) as described by the manufacturer.

[2] = tested on: murine naïve CD4+ T cells; assay: In vitro differentiation of murine primary T cells (Th1, Th2, Treg); assay type: cell-based, Balb/c mice; conditions: 10 or 50 μM D-Trp
Text: Differentiation of murine primary T cells. Murine spleens from female Balb/c mice were filtered through a 40 μm filter to generate single cell suspensions. These were then subjected to red blood cell lysis by using RBC lysis buffer (Biolegend, San Diego, USA) according to the manufacturer's recommendations. Afterwards, naïve CD4^+ T cells were isolated via magnetic-activated cell sorting (MACS) using the naïve CD4^+ T cell isolation kit (Miltenyi Biotec, Bergisch-Gladbach, Germany). The resulting naïve CD4^+ T cells were cultured in 96 wells plates (1×10^6 cells/ml Medium) in TexMACS medium supplemented with 10% FCS, 0.01 mM 2-Mercaptoethanol, rIL-2 (10 ng/ml) as well as MACSiBead particles with anti-CD3 and anti-CD28 (1×10^6 beads per 1×10^6 cells) (all Miltenyi Biotec). Cells were differentiated over a period of 6 days towards Th1 (10 ng/ml IL12 and 10 μg/ml anti-IL4, derived from Cytobox Th1), Th2 (10 ng/ml II4 and 10 μg/ml anti-Ifnγ, derived from Cytobox Th2) and Treg (5 ng/ml) (all Miltenyi Biotec). Differentiation of cells was assessed by flow cytometry (see FIG. 15 for gating strategy), enhanced cytometric bead array (CBA) from cell culture supernatants and qRT-PCR. Prior to CBA and flow cytometry, cells were stimulated with monensin (0.7 μL/mL, BD Golgi Stop, BD Bioscience, Heidelberg, Germany) for 4 h at 37° C. in the prescence of lonomycin (500 ng/ml, Sigma Aldrich, Missouri, USA) and PMA (5 ng/ml, Sigma Aldrich, Missouri, USA).
Assessment of cytokines by cytometric bead array. Levels of II4, II5 and II13 were analysed in BALF and cell culture supernatants using an enhanced cytometric bead array (eCBA, Fex Set Kits, BD Biosciences, Franklin Lakes, N.J., USA) according to the manufacturer's guidelines.
Gene expression analysis. Total RNA was isolated from homogenized lung tissue or cell culture using the miRNeasy Micro Kit according to manufacturer's instructions (Qiagen, Venlo, Netherlands). Concentrations were determined using a NanoDrop® ND-1000 (NanoDrop Technologies, Erlangen, Germany) spectrophotometer. mRNA was transcribed to cDNA with the QuantiTect Rev. Transcription kit (Qiagen, Venlo, Netherlands) and PCR for specific genes was performed on a LightCycler 480 platform with Light Cycler 480 SYBR Green I Mastermix (Roche, Mannheim, Germany).

`N[C@H](Cc1c[nH]c2ccccc12)C(=O)O` [D-tryptophan] was tested, and the activity at 10 µM ([1]; read-out: Percentage of CD40 expressing mature DCs) was 15.2 ± 6.5%, the activity at 10 µM ([1]; read-out: Percentage of CD80 expressing mature DCs) was 12.1 ± 1.7% and the activity at 10 µM ([1]; read-out: Percentage of CD83 expressing mature DCs) was 7.6 ± 3.3%. For the same molecule, the activity at 10 µM ([1]; read-out: Percentage of CD86 expressing mature DCs) was 24.1 ± 2.7%, the activity at 10 µM ([1]; read-out: Percentage of HLA-DR expressing mature DCs) was 88.9 ± 3% and the “IL-10 in DC cultures” value (human LPS treated DCs; highly enriched DCs) was “strongly induced”. For the same molecule, the “LPS-induced IFN-g, IL-12 and IL-5 in DC cultures” value (human LPS treated DCs; highly enriched DCs) was “lowered”, the “Ratio IL-5/IFN-g” value (human LPS treated DCs; with LPS 0.1 μg/ml) was 0.018 and the “Ratio IL-10/IL-12” value (human LPS treated DCs; with LPS 0.1 μg/ml) was 0.232. It also gave an IFN-g (human LPS treated DCs; with LPS 0.1 μg/ml) of 1129.50 pg/mL, an IL-5 (human LPS treated DCs; with LPS 0.1 μg/ml) of 20.60 pg/mL and an IL-10 (human LPS treated DCs; with LPS 0.1 μg/ml) of 202.50 pg/mL. For the same molecule, the IL-12 (human LPS treated DCs; with LPS 0.1 μg/ml) was 871.90 pg/mL, the “Ratio IL-5/IFN-g” value (human LPS treated DCs; without LPS) was 0.470 and the “Ratio IL-10/IL-12” value (human LPS treated DCs; without LPS) was 0.690. For the same molecule, the IFN-g (human LPS treated DCs; without LPS) was 21.90 pg/mL, the IL-5 (human LPS treated DCs; without LPS) was 10.30 pg/mL and the IL-10 (human LPS treated DCs; without LPS) was 56.90 pg/mL. The IL-12 (human LPS treated DCs; without LPS) was 82.50 pg/mL, the Th1 differentiation ([2]; 6 days) was “remained unaffected” and the Th2 cell differentiation ([2]; 6 days) was “reduced”. The lfng expression ([2]; Th1 conditions) was “remained unaffected”, the “II-4, Gata3 expression and II-13 secretion” value ([2]; Th2 conditions) was “reduced” and the “Foxp3 expression of Treg cells on mRNA and protein level” value ([2]; Treg conditions) was “increased”.
